Usually inhibition stands for the change of the read-out against control, counted positive when it falls. Low values mean a response near the control, high ones a response far below the control.

Experiment [1] in a line: DPPH radical scavenging assay. The following applies: for DPPH Inhibitory%: acylselenourea analogs. Format: biochemical. The protocol: Different methods are available to quantify the antioxidant capacity of natural or novel molecules. Notable among these are the ABTS^•+ and DPPH^• methods, which measure the quenching efficiency in vitro for known concentrations of preformed radicals. In this work, the DPPH^• colorimetric assay was carried out. Measurements were recorded on a BioTeck PowerWave XS spectrophotometer (BioTeck Instruments, Winooski, VT, USA) and data were collected using KCJunior v.1.41. software (BioTeck Instruments, Winooski, VT, USA). Compounds with potent activity were selected to further determine their protective effect against ROS-induced cell death caused by H2O2.
DPPH colorimetric assay was performed to determine the in vitro radical scavenging activity of the acylselenourea derivatives. DPPH assay was performed as described by Svinyarov. For each acylselenourea, a stock solution of 1 mg/mL in dimethyl sulfoxide (DMSO) was made, and these solutions were used to prepare the different concentrations employed in the assay. The compounds were tested at two different concentrations (0.003 and 0.03 mg/mL). Intermediate solutions were prepared in methanol and a volume of 100 µL of each was added to each well of the plate. Then, 100 µL of DPPH^• (previously prepared at a concentration of 0.04 mg/mL in methanol and preserved in the dark) was added to the previous methanolic acylselenourea solutions. The discoloration of the purple radical to the yellow reduced form was followed at 517 nm at different time points (0, 5, 15, 30, 60, 90, and 120 min). Ascorbic acid and trolox were used as positive controls. All measurements were carried out in triplicate. Results are expressed as the percentage of the radicals scavenged, calculated using the following formula: (1) % DPPH radical scavenging=Acontrol - Asample/Acontrol × 100 where Acontrol refers to the absorbance of the negative control and Asample refers to the absorbance of the tested compounds. Results are expressed as percentage of DPPH radical scavenging ± SD.
For orientation: DPPH is a stable violet radical that fades when it is reduced.

Another experiment deals with DU-145 cells. Nature of the experiment: Protective effects against H2O2-induced oxidative stress in DU-145 cells (MTT). Format: cell-based, human. The note with it: for Increase-fold: increase-fold of cell survival; for Cell growth inhibition (%): cells without compounds. As to the method:
Cells were treated with the selected compounds and then oxidative damage to DU-145 cells was induced using different concentrations of H2O2 (200, 250 and 300 µM), and cell viability was assessed by the MTT method. Briefly, 2.5 × 10^4 DU-145 cells per well were added in 96-well plates. After 24 h of incubation, DMSO, 1.I, 2.I, 5.I, 7.II, 10.II, and ascorbic acid were added to each well at two different concentrations (0.0015 mg/mL and 0.0003 mg/mL) and incubated for 1 h. After that, H2O2 was added at the concentrations of 200, 250, and 300 µM, and the cells were incubated for 12 h to induce cell damage. MTT assay was used to measure cell viability. For each treatment, the mean cell viability was calculated from three independent experiments. The DMSO-treated controls were assigned with a cell viability value of 100% (Vcontrol). The results are expressed as a cell growth inhibition % caused by H2O2 and the increased fold of cell survival, as follows: • Cells without compounds, only treated with H2O2: (2) % Cell growth inhibition=Acontrol - Asample/Acontrol × 100
• Cells treated with compounds and H2O2:
(3) % Cell growth inhibition=Asample (compound) - Asample (compound+H2O2)/Acontrol × 100
(4) Increase-fold of cell survival=% cell growth inhibition (H2O2)/% cell growth inhibition (compound+ H2O2)
The standard error of the mean (SEM) was calculated in at least three independent experiments performed in quadruplicates.

In experiment [2] the test system is HT-29 (colon) cancer cell line. Kind of experiment: MTT cell viability assay, HT-29. Format: cell-based. The following applies: Homo sapiens, HT-29, 48 h, read-out: Cell growth %; for activity at 10 µM: HT-29, 10 µM; for activity at 50 µM: HT-29, 50 µM. As to the method: (§1) Cell lines were purchased from the American Type Culture Collection (ATCC). Cell lines MDA-MB-231, HTB-54, DU-145, and BEAS-2B were cultured in RPMI 1640 medium (Gibco, Thermo Fisher Scientific, Gaithersburg, MD, USA) supplemented with 10% fetal bovine serum (FBS; Gibco), 100 units/mL penicillin, and […] streptomycin (Gibco). HT-29 cell line was grown in McCoy’s 5A (Gibco), 10% FBS, 100 units/mL penicillin, and 100 μg/mL streptomycin. Cells were maintained at 37 °C and 5% CO2. The culture medium was changed every three days.
(§2) The cell viability of each compound was measured by MTT colorimetric assay. Each compound was dissolved in DMSO at a concentration of 0.01 M. Each compound was tested at two different concentrations (10 and 50 µM) in MDA-MB-231 (breast), HTB-54 (lung), DU-145 (prostate), and HT-29 (colon) human cancer cell lines. Serial dilutions were prepared with supplemented culture medium. […] IC50 and selectivity indexes (SI) were determined.
(§3) Briefly, 1 × 10^4 tumor cells per well were grown in 96-well plates for 24 h. Then, these cells were incubated for 48 h with either DMSO (control) or a different concentration of each of the tested compounds. The cell viability was determined by adding 20 μL of MTT two hours and a half before the termination point. After this time, the culture medium was removed. The resulting formazan crystals were dissolved in 50 μL of DMSO, and the absorbance was measured at 570 nm. Results are expressed as % cell growth. The data were obtained from at least three independent experiments performed in quadruplicate.
In general terms: Tetrazolium assays rely on reduction of a dye to a coloured formazan, in cell work by metabolically active cells.

Experiment [3] concerns MDA-MB-231 (breast) cancer cell line. Kind of experiment: MTT cell viability assay, MDA-MB-231. The note with it: Homo sapiens, MDA-MB-231, 48 h; for activity at 10 µM: read-out: Cell growth %, MDA-MB-231, 10 µM, 48 h, MTT; for activity at 50 µM: read-out: Cell growth %, MDA-MB-231, 50 µM, 48 h, MTT. The experiment is classed as cell-based, human. As to the method: as §1, §2, §3

Experiment [4] has as its system HTB-54 (lung) cancer cell line. Kind of experiment: MTT cell viability assay, HTB-54. Format: cell-based, human. The note with it: Homo sapiens, HTB-54, 48 h; for activity at 10 µM: read-out: Cell growth %, HTB-54, 10 µM, 48 h, MTT; for activity at 50 µM: read-out: Cell growth %, HTB-54, 50 µM, 48 h, MTT. The protocol: as §1, §2, §3
The subject of experiment [5] is DU-145 (prostate) cancer cell line. Kind of experiment: MTT cell viability assay, DU-145. The following applies: Homo sapiens, DU-145, 48 h; for activity at 10 µM: read-out: Cell growth %, DU-145, 10 µM, 48 h, MTT; for activity at 50 µM: read-out: Cell growth %, DU-145, 50 µM, 48 h, MTT. Format: cell-based, human. As to the method: as §1, §2, §3

As for `O=C1O[C@H]([C@@H](O)CO)C(O)=C1O` [Asc. Acid, ascorbic acid, reference compound], the inhibition in experiment [1] (0.003 mg/mL, 0 min) amounted to 33.5 ± 0.5%; in experiment [1] (0.003 mg/mL, 5 min), 33.6 ± 0.4%; in experiment [1] (0.003 mg/mL, 15 min), 34.5 ± 1.6%; in experiment [1] (0.003 mg/mL, 30 min), 34.1 ± 1.1%; in experiment [1] (0.003 mg/mL, 60 min), 34 ± 0.9%; in experiment [1] (0.003 mg/mL, 90 min), 34 ± 0.8%. Besides, the inhibition in experiment [1] (0.003 mg/mL, 120 min) is 34 ± 0.7%; in experiment [1] (0.03 mg/mL, 0 min), 96.4 ± 0.2%; in experiment [1] (0.03 mg/mL, 5 min), 96.4 ± 0.1%; in experiment [1] (0.03 mg/mL, 15 min) it was 96.9 ± 0.5%; in experiment [1] (0.03 mg/mL, 30 min), 96.9 ± 0.5%; in experiment [1] (0.03 mg/mL, 60 min), 96.6 ± 0.1%. Further, the inhibition in experiment [1] (0.03 mg/mL, 90 min) is 96.6 ± 0.1%; in experiment [1] (0.03 mg/mL, 120 min), 96.6 ± 0.1%. Also, the Increase-fold with DU-145 cells (compound 0.0003 mg/mL, 200 µM H2O2, DU-145) amounted to 4.2 ± 0.4; with DU-145 cells (compound 0.0003 mg/mL, 250 µM H2O2, DU-145) it was 3.1 ± 0.7; in the experiment with DU-145 cells (compound 0.0003 mg/mL, 300 µM H2O2, DU-145) it was 2.2 ± 0.1; with DU-145 cells (compound 0.0015 mg/mL, 200 µM H2O2, DU-145), 3.6 ± 0.3; with DU-145 cells (compound 0.0015 mg/mL, 250 µM H2O2, DU-145), 2.9 ± 0.7; with DU-145 cells (compound 0.0015 mg/mL, 300 µM H2O2, DU-145) it was 1.5 ± 0.2.

Take `C#CCNC(=[Se])NC(=O)c1ccco1` [Compound 1.III, N-(prop-2-in-1-ylcarbamoselenoyl)furan-2-carboxamide]: the activity at 10 µM in experiment [2] came to 84 ± 16.8%; in experiment [3], 66.3 ± 16.7%; in experiment [4], 76 ± 4.8%; in experiment [5], 42.4 ± 4.8%. Moreover, the activity at 50 µM in experiment [2] worked out at 17.2 ± 4.2%; in experiment [3], 17.6 ± 9.3%; in experiment [4], 48 ± 4.2%; in experiment [5] it was 15.2 ± 1.2%. Besides, the inhibition in experiment [1] (0.003 mg/mL, 0 min) turned out to be 1.5 ± 0.7%; in experiment [1] (0.003 mg/mL, 5 min), 3.4 ± 0.6%; in experiment [1] (0.003 mg/mL, 15 min) it was 4.9 ± 0.7%; in experiment [1] (0.003 mg/mL, 30 min), 6.5 ± 0.7%; in experiment [1] (0.003 mg/mL, 60 min), 8.5 ± 1%; in experiment [1] (0.003 mg/mL, 90 min), 9.6 ± 0.9%. For the same compound, the inhibition was determined as 10 ± 0.8% in experiment [1] (0.003 mg/mL, 120 min); 11.8 ± 1.7% in experiment [1] (0.03 mg/mL, 0 min); 15.2 ± 4.4% in experiment [1] (0.03 mg/mL, 5 min); 23.5 ± 3.9% in experiment [1] (0.03 mg/mL, 15 min); 31.2 ± 3.7% in experiment [1] (0.03 mg/mL, 30 min); 40.9 ± 4.3% in experiment [1] (0.03 mg/mL, 60 min). In experiment [1] (0.03 mg/mL, 120 min), this compound returned an inhibition of 48.1 ± 0.4%. Moreover, in experiment [1] (0.03 mg/mL, 90 min), the “DPPH Inhibitory%” value was determined as 42.6 ± 0.6%.

On to `C=CCNC(=[Se])NC(=O)c1cccs1` [Compound 2.II, N-(allylcarbamoselenoyl)thiophene-2-carboxamide], for which the activity at 10 µM in experiment [2] amounted to 107 ± 16.2%; in experiment [3] it was 79.9 ± 9.6%; in experiment [4], 35.9 ± 12.1%; in experiment [5], 63.4 ± 5.6%. Besides, the activity at 50 µM in experiment [2] was 26.2 ± 5.1%; in experiment [3] it was 11.1 ± 5.9%; in experiment [4] it was 8.52 ± 4.8%; in experiment [5], 7.33 ± 4.6%. Moreover, the inhibition in experiment [1] (0.003 mg/mL, 0 min) is 0%; in experiment [1] (0.003 mg/mL, 5 min) it was 6.4 ± 1.1%; in experiment [1] (0.003 mg/mL, 15 min), 10.4 ± 1.2%; in experiment [1] (0.003 mg/mL, 30 min), 13 ± 1.2%; in experiment [1] (0.003 mg/mL, 60 min) it was 15.2 ± 1.2%; in experiment [1] (0.003 mg/mL, 90 min) it was 16 ± 1.2%. The inhibition stood at 16.3 ± 1.2% in experiment [1] (0.003 mg/mL, 120 min); 24.4 ± 3% in experiment [1] (0.03 mg/mL, 0 min); 60.7 ± 2.5% in experiment [1] (0.03 mg/mL, 5 min); 75.8 ± 3.5% in experiment [1] (0.03 mg/mL, 15 min); 87.6 ± 4% in experiment [1] (0.03 mg/mL, 30 min); 96.7 ± 0.7% in experiment [1] (0.03 mg/mL, 60 min). In addition, the “time to reach the highest DPPH inhibition” value in experiment [1] (0.03 mg/mL) was 60 min. In experiment [1] (0.03 mg/mL, 90 min), the “DPPH Inhibitory%” value was determined as 97.3 ± 0.8%.

In the case of `OO` [Compound H2O2, H2O2, reference compound], the “Cell growth inhibition (%)” value was 36.9 ± 6.9% with DU-145 cells (only treated with 200 µM H2O2, DU-145, 12 h); 53.4 ± 6.1% in the experiment with DU-145 cells (only treated with 250 µM H2O2, DU-145, 12 h); 66.8 ± 6.3% in the experiment on DU-145 cells (only treated with 300 µM H2O2, DU-145, 12 h).

For the compound `Cc1c(C)c2c(c(C)c1O)CCC(C)(C(=O)O)O2` (stereo not drawn) [Trolox, trolox, reference compound], the inhibition in experiment [1] (0.003 mg/mL, 0 min) amounted to 28.4 ± 1%; in experiment [1] (0.003 mg/mL, 5 min), 29.2 ± 1%; in experiment [1] (0.003 mg/mL, 15 min) it was 29.2 ± 0.9%; in experiment [1] (0.003 mg/mL, 30 min), 29.2 ± 0.8%; in experiment [1] (0.003 mg/mL, 60 min), 29.2 ± 0.8%; in experiment [1] (0.003 mg/mL, 90 min) it was 29.2%. Also, the inhibition in experiment [1] (0.003 mg/mL, 120 min) was determined as 29.1%; in experiment [1] (0.03 mg/mL, 0 min), 90.8 ± 2.3%; in experiment [1] (0.03 mg/mL, 5 min) it was 96.3 ± 0.1%; in experiment [1] (0.03 mg/mL, 15 min) it was 96.3 ± 0.2%; in experiment [1] (0.03 mg/mL, 30 min) it was 96.3 ± 0.2%; in experiment [1] (0.03 mg/mL, 60 min) it was 96.2 ± 0.2%. The inhibition in experiment [1] (0.03 mg/mL, 90 min) amounted to 96.2 ± 0.2%; in experiment [1] (0.03 mg/mL, 120 min) it was 96.2 ± 0.2%.

The values are drawn from publication PMC10376326, “Novel Acylselenourea Derivatives: Dual Molecules with Anticancer and Radical Scavenging Activity” (Antioxidants, 2023).
